The values below come from US20250275539A1, “APYRASE INHIBITORS” (Texas Crop Science, Inc., priority 2024, published 2025).

Like-named read-outs stand apart in the source and are kept apart here.

Assay [1] concerns apyrase. Kind of assay: Apyrase inhibition assay (screen for apyrase inhibitors, phosphate release read at 630 nm). It counts as biochemical. The conditions noted are these: inhibitor conc at 1 mM (10 μl added), 3 mM ATP, pH 6.5, room temperature 1 hr.
The subject of assay [2] is Amaranthus retroflexus (pigweed). Kind of assay: Enhancement of herbicide activity: pre-emergence Amaranthus kill with metribuzin. The following applies: for pest or weed control at 100 g/ha: Amaranthus retroflexus; for enhancement of metribuzin herbicidal activity: compound at 100 g/ha with metribuzin, at seven and fourteen days. Type of assay: in vivo. Here is the method:
Specifically, Amaranthus retroflexus (pigweed) was treated pre-emergence with metribuzin alone or in combination with an enhancer compound disclosed herein. Fifteen seeds of Amaranthus retroflexus were sown in soil in each pot and then sprayed with a mixture of metribuzin at the appropriate rate shown in Table 5 and the compound of this invention at 100 g/ha using a track sprayer at a water volume of 200 L/hectare. Small amounts of acetone were used to aid solubility. The pots were watered immediately after sowing and treatment and then allowed to stand in a glasshouse. Assessment of kill was made seven and fourteen days after treatment. The test included four replicates for each treatment and the control.

Assay [3] deals with Brown Rust (Puccinia recondita) on wheat. The assay can be described thus: Greenhouse crop test: control of Brown Rust on wheat in combination with commercial fungicides. The following applies: wheat JB Diego, inoculated 24 hours after treatment, evaluated at fourteen days; for Amistar (% control of the disease, compound + fungicide): with Amistar 0.04 L/ha; for Balaya (% control of the disease, compound + fungicide): with Balaya 0.25 L/ha; for Imtrex (% control of the disease, compound + fungicide): with Imtrex 0.45 L/ha; for Proline (% control of the disease, compound + fungicide): with Proline 0.15 L/ha. It counts as in vivo. Here is the method:
In this method, exemplary compounds were evaluated for their ability to control Brown Rust (Puccinia recondita) on wheat in a controlled greenhouse environment in combination with one of four fungicides, Amistar, Imtrex, Proline or Balaya. In these studies, wheat plants (JB Diego) were used. Seeds were sown in 9 cm diameter pots to a depth of 1 to 2 cm using Petersfield potting compost (75% medium grade peat, 12% screened sterilized loam, 3% medium grade vermiculite, 10% grit (5 mm screened, lime free), 1.5 kg PG mix per m3, lime to pH5.5-6.0 and wetting agent (Vitax Ultrawet 200 ml per m3) and germinated/grown at 23 C under a 16 h day/8 h night light regime. Plants were treated two to three weeks after sowing when they were at the BBCH 11 growth stage ([…]). Wheat plants were inoculated with Puccinia triticina (Brown rust) 24 hours after treatment. A track sprayer was used to treat the plants with the mixture of commercial fungicide and test compound using a water volume of 200 L/ha. Four replicates were used for each combination of fungicide, pathogen and test compound. Each plant was evaluated at fourteen days (once the disease symptoms were fully expressed) for % control of the disease. Appropriate controls were used for all experiments, including an ‘inoculation check’ wherein plants were inoculated with their specific pathogen to assess disease levels. Also, each commercial fungicide was tested on its own as a part of each treatment, this being benchmark against which the experimental compounds were evaluated. […] That is, the present compounds, although not fungicidal by themselves, enhance the activity of fungicides, thus the enhancer compounds work synergistically in combination with fungicides to control disease. • Amistar (0.04 L/ha) • Imtrex (0.45 L/ha) • Proline (0.15 L/ha) • Balaya (0.25 L/ha)

The mark [4] stands for this setting: 168 h, read-out: Pre-Emergence Amaranthus Kill Percentage, Assessed 7 DAT, Metribuzin rate 50 g/ha.
The mark [5] stands for this setting: 168 h, read-out: Pre-Emergence Amaranthus Kill Percentage, Assessed 7 DAT, Metribuzin rate 100 g/ha.
The mark [6] stands for this setting: 168 h, read-out: Pre-Emergence Amaranthus Kill Percentage, Assessed 7 DAT, Metribuzin rate 200 g/ha.
Setting [7] is: 336 h, read-out: Pre-Emergence Amaranthus Kill Percentage, Assessed 14 DAT, Metribuzin rate 50 g/ha.
Setting [8] is: 336 h, read-out: Pre-Emergence Amaranthus Kill Percentage, Assessed 14 DAT, Metribuzin rate 100 g/ha.
The mark [9] stands for this setting: 336 h, read-out: Pre-Emergence Amaranthus Kill Percentage, Assessed 14 DAT, Metribuzin rate 200 g/ha.

For the molecule `Cc1ccnc(NS(=O)(=O)c2ccc(CC#N)cc2)n1` [Compound A-21, 4-(cyanomethyl)-N-(4-methylpyrimidin-2-yl)benzenesulfonamide], the Inhibition result in assay [1] was “A (A is inhibition above 30%)”. In addition, the pest or weed control at 100 g/ha in assay [2] (setting [4]) came out at 0%; in assay [2] (setting [5]), 62.3%; in assay [2] (setting [6]), 100%; in assay [2] (setting [7]) it was 4.4%; in assay [2] (setting [8]) it was 63%; in assay [2] (setting [9]), 100%. Besides, in assay [2], the “enhancement of metribuzin herbicidal activity” value (“enhancement” below) is “significant enhancement”. The “Amistar (% control of the disease, compound + fungicide)” value in assay [3] is on record as 48.5%. Besides, in assay [3], the “Balaya (% control of the disease, compound + fungicide)” value is 39.0%. Further, the “Imtrex (% control of the disease, compound + fungicide)” value in assay [3] is on record as 47.7%. Further, in assay [3], the “Proline (% control of the disease, compound + fungicide)” value turned out to be 1.2%.

`O=S(=O)(Nc1ccc(-c2nncs2)cc1)c1ccc(-c2ccccc2)cc1` [Compound A-29, N-(4-(1,3,4-thiadiazol-2-yl)phenyl)-[1,1′-biphenyl]-4-sulfonamide]: the Inhibition entry in assay [1] was “A (A is inhibition above 30%)”. Moreover, the pest or weed control at 100 g/ha in assay [2] (setting [4]) was determined as 13.2%; in assay [2] (setting [5]), 66.7%; in assay [2] (setting [6]) it was 87.7%; in assay [2] (setting [7]), 17.1%; in assay [2] (setting [8]), 71.4%; in assay [2] (setting [9]), 90%. Further, the “enhancement” value in assay [2] is reported as “significant enhancement”. In assay [3], the “Amistar (% control of the disease, compound + fungicide)” value amounted to 67.0%. In addition, the “Balaya (% control of the disease, compound + fungicide)” value in assay [3] stood at 59.5%. Also, the “Imtrex (% control of the disease, compound + fungicide)” value in assay [3] came to 60.1%. Also, the “Proline (% control of the disease, compound + fungicide)” value in assay [3] amounted to 18.7%.

With `COc1cccc(NS(=O)(=O)c2ccc(-c3ccc(C)cc3)cc2)c1` [Compound A-34, N-(3-methoxyphenyl)-4′-methyl-[1,1′-biphenyl]-4-sulfonamide], in assay [1], the Inhibition result is listed as “A (A is inhibition above 30%)”. Further, the pest or weed control at 100 g/ha in assay [2] (setting [4]) came out at 28.3%; in assay [2] (setting [5]), 70.5%; in assay [2] (setting [6]) it was 100%; in assay [2] (setting [7]) it was 37.3%; in assay [2] (setting [8]) it was 77.8%; in assay [2] (setting [9]), 100%. The “enhancement” value in assay [2] was “significant enhancement”. For the same molecule, the “Amistar (% control of the disease, compound + fungicide)” value in assay [3] was found to be 51.9%. In assay [3], the “Balaya (% control of the disease, compound + fungicide)” value was 48.3%. Also, the “Imtrex (% control of the disease, compound + fungicide)” value in assay [3] is recorded as 34.5%. Further, the “Proline (% control of the disease, compound + fungicide)” value in assay [3] is on record as 3.8%.

For the molecule `Cc1cccc(NS(=O)(=O)c2ccc(C(C)C)cc2)c1` [Compound A-59, 4-isopropyl-N-(m-tolyl)benzenesulfonamide], the Inhibition result in assay [1] is given as “A (A is inhibition above 30%)”. The pest or weed control at 100 g/ha stood at 14.3% in assay [2] (setting [4]); 64.6% in assay [2] (setting [5]); 95% in assay [2] (setting [6]); 25.9% in assay [2] (setting [7]); 67.3% in assay [2] (setting [8]); 100% in assay [2] (setting [9]). Moreover, the “enhancement” value in assay [2] is reported as “significant enhancement”. Moreover, the “Amistar (% control of the disease, compound + fungicide)” value in assay [3] was found to be 95.0%. In assay [3], the “Balaya (% control of the disease, compound + fungicide)” value came out at 50.0%. Moreover, in assay [3], the “Imtrex (% control of the disease, compound + fungicide)” value is on record as 30.9%. Moreover, in assay [3], the “Proline (% control of the disease, compound + fungicide)” value is listed as 15.6%.

In the case of `CCCc1ccc(S(=O)(=O)Nc2cccc(C)c2)cc1` [Compound A-62, 4-propyl-N-(m-tolyl)benzenesulfonamide], the Inhibition entry in assay [1] was “A (A is inhibition above 30%)”. The pest or weed control at 100 g/ha in assay [2] (setting [4]) was 23.5%; in assay [2] (setting [5]) it was 58.9%; in assay [2] (setting [6]), 95.8%; in assay [2] (setting [7]), 35.7%; in assay [2] (setting [8]), 61%; in assay [2] (setting [9]) it was 96%. Moreover, the “enhancement” value in assay [2] was “significant enhancement”. In assay [3], the “Amistar (% control of the disease, compound + fungicide)” value turned out to be 71.7%. For the same molecule, the “Balaya (% control of the disease, compound + fungicide)” value in assay [3] is on record as 21.7%. Besides, the “Imtrex (% control of the disease, compound + fungicide)” value in assay [3] was 38.8%. In addition, in assay [3], the “Proline (% control of the disease, compound + fungicide)” value is given as 1.4%.

Consider `Cc1cccc(NS(=O)(=O)c2ccc(CCC(=O)O)cc2)c1` [Compound A-103, 3-(4-(N-(m-tolyl)sulfamoyl)phenyl) propanoic acid], for which the Inhibition entry in assay [1] was “B (B is inhibition from 20% to 30%)”. Besides, the pest or weed control at 100 g/ha in assay [2] (setting [4]) stood at 5.1%; in assay [2] (setting [5]), 54.7%; in assay [2] (setting [6]) it was 91.5%; in assay [2] (setting [7]), 30.6%; in assay [2] (setting [8]), 43.1%; in assay [2] (setting [9]), 98.4%. Moreover, in assay [2], the “enhancement” value is “significant enhancement”. Besides, the “Amistar (% control of the disease, compound + fungicide)” value in assay [3] is recorded as 37.0%. For the same molecule, the “Balaya (% control of the disease, compound + fungicide)” value in assay [3] came out at 67.2%. In assay [3], the “Imtrex (% control of the disease, compound + fungicide)” value is given as 13.2%. Also, the “Proline (% control of the disease, compound + fungicide)” value in assay [3] was found to be 4.4%.

Regarding `Cc1ccc(C(=O)N(C)C)cc1NS(=O)(=O)c1ccc(-c2ccccc2)cc1` [Compound A-108, 3-([1,1′-biphenyl]-4-sulfonamido)-N,N,4-trimethylbenzamide], the Inhibition entry in assay [1] is reported as “A (A is inhibition above 30%)”. Moreover, the pest or weed control at 100 g/ha turned out to be 6.3% in assay [2] (setting [4]); 76.5% in assay [2] (setting [5]); 100% in assay [2] (setting [6]); 13.5% in assay [2] (setting [7]); 78.8% in assay [2] (setting [8]); 100% in assay [2] (setting [9]). Moreover, in assay [2], the “enhancement” value is listed as “significant enhancement”. Also, the “Amistar (% control of the disease, compound + fungicide)” value in assay [3] is recorded as 92.1%. Moreover, the “Balaya (% control of the disease, compound + fungicide)” value in assay [3] is recorded as 31.7%. The “Imtrex (% control of the disease, compound + fungicide)” value in assay [3] is 40.5%. For the same molecule, the “Proline (% control of the disease, compound + fungicide)” value in assay [3] is recorded as −1.2%.
